Measurements reported in patent US7994164B2, “Mineralocorticoid receptor antagonists and methods of use” (Eli Lilly and Company, priority 2007, dated 2011).

Key:
human MR = biological target: T1, human MR (Homo sapiens, UniProt P08235); assay: hMR competitive antagonist assay (luciferase reporter, Schild analysis); assay type: cell-based
T1 construct: expressed in transfected cells; host or cells: HEK293, transient transfection with a CMV-driven plasmid and a GRE-TK-luciferase reporter
T1 sequence (P08235 1-984): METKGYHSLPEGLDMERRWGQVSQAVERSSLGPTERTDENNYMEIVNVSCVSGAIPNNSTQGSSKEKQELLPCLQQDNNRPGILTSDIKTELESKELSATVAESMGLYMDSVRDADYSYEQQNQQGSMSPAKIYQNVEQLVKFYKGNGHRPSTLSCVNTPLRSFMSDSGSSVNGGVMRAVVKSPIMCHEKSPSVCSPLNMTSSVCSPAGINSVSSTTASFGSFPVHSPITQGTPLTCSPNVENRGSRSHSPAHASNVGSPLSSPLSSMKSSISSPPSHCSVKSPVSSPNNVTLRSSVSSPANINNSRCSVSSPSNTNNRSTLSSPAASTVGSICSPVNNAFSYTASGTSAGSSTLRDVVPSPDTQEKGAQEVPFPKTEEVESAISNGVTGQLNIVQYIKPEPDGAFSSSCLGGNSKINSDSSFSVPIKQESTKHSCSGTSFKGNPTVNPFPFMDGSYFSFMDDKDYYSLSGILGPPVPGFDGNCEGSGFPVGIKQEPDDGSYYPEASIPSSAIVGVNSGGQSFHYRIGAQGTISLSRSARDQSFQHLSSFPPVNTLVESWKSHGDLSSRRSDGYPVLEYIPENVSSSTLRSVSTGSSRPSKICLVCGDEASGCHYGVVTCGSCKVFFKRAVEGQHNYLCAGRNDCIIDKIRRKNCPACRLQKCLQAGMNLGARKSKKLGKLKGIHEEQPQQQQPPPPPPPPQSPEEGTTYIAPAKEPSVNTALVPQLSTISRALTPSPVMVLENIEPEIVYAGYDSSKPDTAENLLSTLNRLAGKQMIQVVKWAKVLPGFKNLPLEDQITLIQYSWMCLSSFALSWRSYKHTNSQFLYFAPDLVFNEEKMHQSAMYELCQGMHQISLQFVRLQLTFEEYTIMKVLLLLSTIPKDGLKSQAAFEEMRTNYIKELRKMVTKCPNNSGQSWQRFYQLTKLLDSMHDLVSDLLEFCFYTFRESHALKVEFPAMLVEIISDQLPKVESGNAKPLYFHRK
Source text: Human embryonic kidney HEK293 cells are transfected with steroid hormone receptor and reporter gene plasmids using a suitable transfection reagent such as Fugene™. Briefly, the reporter plasmid containing two copies of probasin ARE and TK (thymidine kinase) promoter upstream of the luciferase reporter cDNA, is transfected into HEK293 cells with a plasmid constitutively expressing human androgen receptor (AR) using viral CMV (cytomegalovirus) promoter. The reporter plasmid containing two copies of GRE and TK promoter upstream of the luciferase reporter cDNA is transfected with a plasmid constitutively expressing either human glucocorticoid receptor (GR), human mineralocorticoid receptor (MR), or human progesterone receptor (PR) using viral CMV promoter. Cells are transfected in T150 cm flasks in DMEM media with 5% charcoal-stripped Fetal Bovine Serum (FBS). After an overnight incubation, transfected cells are trypsinized, plated in 96 well dishes in DMEM media containing 5% charcoal-stripped FBS, incubated for 4 hours and then exposed to various concentrations of test compounds ranging from about 0.01 nM to 10 μM. […] After 24 hours incubation with test compounds, cells are lysed and luciferase activity is determined using standard techniques.
Human embryonic kidney HEK293 cells are transfected with human MR using the same transfection reagents, plasmids, promoters, reporter constructs, buffers, and procedures as described above for the Nuclear Hormone Receptor Panel Screen.

[1] = biological target: T2, human MR (mineralocorticoid receptor) (Homo sapiens, UniProt P08235); assay: Steroid hormone nuclear receptor binding assay (MR binding); conditions: HEK293 lysate overexpressing human MR, [3H]-aldosterone; individual values geometric mean of n=2
T2 construct: expressed in transfected cells; host or cells: HEK293 (lysate, '293-MR lysate')
T2 sequence (P08235 1-984): T1 sequence (P08235 1-984)
Protocol: Cell lysates from human embryonic kidney HEK293 cells overexpressing human MR (mineralocorticoid receptor), GR (glucocorticoid receptor), AR (androgen receptor), or PR (progesterone receptor) are used for receptor-ligand competition binding assays to determine Ki values.
Briefly, steroid receptor competition binding assays are run in a buffer containing 20 mM HEPES buffer (pH=7.6), 0.2 mM EDTA, 75 mM NaCl, 1.5 mM MgCl2, 20% glycerol, 20 mM sodium molybdate, 0.2 mM DTT (dithiothreitol), 20 μg/mL aprotinin and 20 μg/mL leupeptin (assay buffer). Typically, steroid receptor binding assays include radio-labeled ligands, such as 0.25 nM [^3H]-aldosterone for MR binding, 0.3 nM [^3H]-dexamethasone for GR binding, 0.36 nM [^3H]-methyltrienolone for AR binding, and 0.29 nM [^3H]-methyltrienolone for PR binding, and either 20 μg 293-MR lysate, 20 μg 293-GR lysate, 22 μg 293-AR lysate, or 40 μg 293-PR lysate per well. Assays are typically run in 96-well format. Competing test compounds are added at various concentrations ranging from about 0.01 nM to 10 μM. […] The binding reactions (140 μL) are incubated overnight at 4° C., then 70 μL of cold charcoal-dextran buffer (containing per 50 mL of assay buffer, 0.75 g of charcoal and 0.25 g of dextran) is added to each reaction. Plates are mixed for 8 minutes on an orbital shaker at 4° C. The plates are then centrifuged at 3,000 rpm at 4° C. for 10 minutes. An aliquot of 120 μL of the binding reaction mixture is then transferred to another 96-well plate and 175 μL of Wallac Optiphase Hisafe 3™ scintillation fluid is added to each well. Plates are sealed and shaken vigorously on an orbital shaker. After an incubation of 2 hours, plates are read in a Wallac Microbeta counter.
The Kd for [^3H]-aldosterone for MR binding, [^3H]-dexamethasone for GR binding, [^3H]-methyltrienolone for AR binding, or [^3H]-methyltrienolone for PR binding, is determined by saturation binding. The IC50 values for compounds are converted to Ki using the Cheng-Prusoff equation.

[2] = system: uni-nephrectomized Sprague Dawley rats; assay: In vivo model of aldosterone mediated renal disease; conditions: 10 mg/kg/day x 14 days, oral gavage, aldosterone-infused rats; average of n=8
Protocol: Male uni-nephrectomized Sprague Dawley rats (240-280 g) are housed individually with ad lib house water and rodent 5001 diet for one week. After acclimation, baseline 24 h urine samples are collected and analyzed for total urine protein and creatinine. Animals are randomized via body weight and baseline urine protein into study groups. Baseline serum is taken by tail-clip and analyzed for blood urea nitrogen (BUN), creatinine, and electrolytes. After baseline samples are taken, all rats with the exception of the control group are maintained on a diet containing 6% salt, and drinking water containing 0.3% KCl throughout the study duration. […] Alza mini-pumps to deliver 2.5 μl/h×28 days of d-aldosterone in 0.01% DMSO at 0.75 μg/h, s.c. are implanted in non-control animals (e.g Test Compound group and Vehicle only group) under isoflourane anesthesia. […] Repeat urine samples are collected after 2 and 4 weeks of compound or vehicle alone administration and analyzed for total urine protein and creatinine. At study termination, pharmacokinetic samples are obtained at 8 timepoints (0.5, 1, 2, 3, 6, 8, 12 and 24 h). In addition, hearts and kidneys are removed and fixed in 10% buffered formalin for haematoxylin and eosin (H&E) and Masson's trichrome staining to detect structural damage in cardiac and renal tissues. Serum is taken by cardiac puncture at study termination for additional analysis of serum BUN, creatinine, and electrolytes.

Row | Compound | Kb (human MR) [nM] | Ki [1] [nM] | reduced urinary protein excretion compared to vehicle treated animals [2]
1 | N#C/N=c1\[nH]c2cc(/C=C3/c4ccc(F)cc4OCc4c(F)cccc43)ccc2n1[C@H]1C[C@@H]2COCCN2C1 [Example 23, (E)-N-(5-((E)-3,7-Difluoro-6H-dibenzo[b,e]oxepin-11-ylidenemethyl)-1-((7S, 8aR)-hexahydro-pyrrolo[2,1-c][1,4]oxazin-7-yl)-1,3-dihydro-benzoimidazol-2-ylidene)-cyanamide] | ~2.5 | ~0.23 | ~64 mg/day
2 | CN1CCN(n2/c(=N/C#N)[nH]c3cc(/C=C4\c5ccccc5COc5cc(F)ccc54)ccc32)CC1 [Example 8, (E)-N-(5-((E)-3-Fluoro-6H-dibenzo[b,e]oxepin-11-ylidenemethyl)-1-(4-methyl-piperazin-1-yl)-1,3-dihydro-benzoimidazol-2-ylidene)-cyanamide] | ~1.1 | ~0.08 | ~83 mg/day
3 | C[C@H](CN1CCOCC1)n1/c(=N/C#N)[nH]c2cc(/C=C3\c4ccc(F)cc4COc4cc(F)ccc43)ccc21 [Example 1, (E)-N—((R)-5-((E)-3,8-Difluoro-6H-dibenzo[b,e]oxepin-11-ylidenemethyl)-1-(1-methyl-2-morpholin-4-yl-ethyl)-1,3-dihydro-benzoimidazol-2-ylidene)-cyanamide] | ~1.2 | ~0.79 | about 49 mg/day
